These are literature values, as cited in patent US20090192128A1 (priority 2005, published 2009).

Where a name gives a salt, the structure may show the parent alone.

With `NNc1nncc2ccccc12` [Hydralazine hydrochloride, hydralazine hydrochloride], the solubility in water result is given as “soluble”. Besides, the solubility in alcohol entry (alcohol) is “slightly soluble”. Besides, for the setting “ether”, the solubility in ether entry was “very slightly soluble”.

For the compound `O=[N+]([O-])O[C@H]1CO[C@H]2[C@@H]1OC[C@H]2O[N+](=O)[O-]` [Diluted isosorbide dinitrate, 1,4,3,6-dianhydro-D-glucitol-2,5-dinitrate], the solubility in water result is recorded as “sparingly soluble”. For the same compound, the “solubility in organic solvents” value (organic solvents such as ethanol, ether and chloroform) was “freely soluble”.
